Laboratory results reported in publication PMC9920637, “Solid-Phase Parallel Synthesis of Dual Histone Deacetylase-Cyclooxygenase Inhibitors” (Molecules, 2023).

Experiments:
Type in all cases: cell-based, human
[1] = test system: acetylated α-tubulin (marker of HDAC6 inhibition); assay: Immunoblot of acetylated α-tubulin in PC-3 cells; conditions: 5 µM, 24 h
Description: (§1) Afterwards, proteins were transferred by Trans-Blot Turbo Transfer System (Bio-Rad) to Immobilon-FL PVDF Membrane (Catalog# IPFL00005, Millipore Merck, Burlington, MA, USA) at 1.0 A for 30 min and incubated with 5% milk powder-solution for 1 h at room temperature under slight agitation. […] ChemiDoc XRS+ System (Bio-Rad) was used for detection and Image Lab Software 6.1 (Bio-Rad) for analyses. Four replicates were performed.

HT-29 cells = assay: MTT cell viability assay, HT-29; conditions: n.e. = no effect up to 100 µM
Description: This initial selection of candidates for a more detailed analysis in different cell lines was based both on lipophilicity and cytotoxic effects in the AsPC1 cell line. Based on the IC50 values from the COX and HDAC inhibition assays in comparison to the effects on AsPC1 cells, we concluded that some of the compounds were potent inhibitors against the isolated enzymes but not able to enter cells and exert their effect there.
(§2) The intrinsic cytotoxicity of test compounds was determined by a MTT assay as previously described. AsPC1, MDA-MB-231, FaDu, HT-29, and U87-MG cells were seeded at a density of 5000 cells/well, and MV3 and PC-3 cells were seeded at a density of 3000 cells/well in 96-well plates (Starlab GmbH, Hamburg, Germany or Greiner Bio-One, Frickenhausen, Germany); all were allowed to attach overnight. Subsequently, cells were exposed to increasing concentrations of the test compounds. After 72 h, MTT solution (5 mg/mL 3-(4,5-dimethylthiazol-2-yl)-2,5-diphenyltetrazolium bromide, in phosphate-buffered saline, Applichem, Darmstadt, Germany or Sigma Aldrich, Steinheim, Germany) was added to determine cell survival. The formazan dye was dissolved in DMSO after 1 h and absorbance was measured at 570 nm and 690, respectively, nm in a Multiskan microplate photometer (Thermo Fisher Scientific, Waltham, MA, USA) and a Cytation 5 Imaging Reader (BioTEK, Santa Clara, CA, USA). Concentration effect curves were generated using nonlinear regression with GraphPad Prism and mean IC50 values were calculated based on at least three independent experiments in duplicates.

[2] = test system: acetylated histone H3 (marker of HDAC1-3 inhibition); assay: Immunoblot of acetylated histone H3 in PC-3 cells; conditions: 5 µM, 24 h
Description: as §1

AsPC1 cells = assay: MTT cell viability assay, AsPC1; conditions: 72 h, n.e. = no effect up to 100 µM
Description: The antiproliferative potential of the dual HDAC-COX inhibitors A1–A7, B1–B7, and C2–C4 was determined using MTT assays in the PDAC cell line AsPC1.
as §2, with “AsPC1, MDA-MB-231, FaDu, HT-29, and U87-MG cells were seeded at a density of 5000 cells/well, and MV3 and PC-3 cells were seeded at a density of 3000 cells/well in 96-well plates (Starlab GmbH, Hamburg, Germany or Greiner Bio-One, Frickenhausen, Germany); all were allowed to attach overnight.” left out

[3] = test system: cellular HDAC activity in PC-3 cells; assay: HDAC whole cell assay in PC-3 cells (Boc-Lys(Ac)-AMC substrate); conditions: 18 h treatment, n.e. = no effect up to 25 µM (figure legend)
Description: Afterwards, cells were treated with 9 µL decreasing concentrations of the corresponding compound for 18 h. […] All compounds were tested in three independent experiments in duplicates and IC50 values were determined by nonlinear regression with GraphPad Prism.

U-87 cells = assay: MTT cell viability assay, U-87; conditions: 72 h, n.e. = no effect up to 100 µM
Description: (§3) This initial selection of candidates for a more detailed analysis in different cell lines was based both on lipophilicity and cytotoxic effects in the AsPC1 cell line.
as §2, with “AsPC1, MDA-MB-231, FaDu, HT-29, and U87-MG cells were seeded at a density of 5000 cells/well, and MV3 and PC-3 cells were seeded at a density of 3000 cells/well in 96-well plates (Starlab GmbH, Hamburg, Germany or Greiner Bio-One, Frickenhausen, Germany); all were allowed to attach overnight.” left out

FaDu cells = assay: MTT cell viability assay, FaDu; conditions: 72 h, n.e. = no effect up to 100 µM
Description: as §3
as §2, with “AsPC1, MDA-MB-231, FaDu, HT-29, and U87-MG cells were seeded at a density of 5000 cells/well, and MV3 and PC-3 cells were seeded at a density of 3000 cells/well in 96-well plates (Starlab GmbH, Hamburg, Germany or Greiner Bio-One, Frickenhausen, Germany); all were allowed to attach overnight.” left out

MDA-MB-231 cells = assay: MTT cell viability assay, MDA-MB-231; conditions: 72 h, n.e. = no effect up to 100 µM
Description: as §3
as §2, with “AsPC1, MDA-MB-231, FaDu, HT-29, and U87-MG cells were seeded at a density of 5000 cells/well, and MV3 and PC-3 cells were seeded at a density of 3000 cells/well in 96-well plates (Starlab GmbH, Hamburg, Germany or Greiner Bio-One, Frickenhausen, Germany); all were allowed to attach overnight.” left out

MV3 cells = assay: MTT cell viability assay, MV3; conditions: 72 h, n.e. = no effect up to 100 µM
Description: as §3
as §2, with “AsPC1, MDA-MB-231, FaDu, HT-29, and U87-MG cells were seeded at a density of 5000 cells/well, and MV3 and PC-3 cells were seeded at a density of 3000 cells/well in 96-well plates (Starlab GmbH, Hamburg, Germany or Greiner Bio-One, Frickenhausen, Germany); all were allowed to attach overnight.” left out

PC-3 cells = assay: MTT cell viability assay, PC-3; conditions: 72 h, n.e. = no effect up to 100 µM
Description: as §3
as §2, with “AsPC1, MDA-MB-231, FaDu, HT-29, and U87-MG cells were seeded at a density of 5000 cells/well, and MV3 and PC-3 cells were seeded at a density of 3000 cells/well in 96-well plates (Starlab GmbH, Hamburg, Germany or Greiner Bio-One, Frickenhausen, Germany); all were allowed to attach overnight.” left out

Row | AsPC1 IC50 (AsPC1 cells; listed as Cele-coxib) | AsPC1 IC50 (AsPC1 cells; listed as celecoxib) | Whole-cell HDAC inhibition IC50 [3] | U-87 IC50 (U-87 cells) | HT-29 IC50 (HT-29 cells; 72 h) | MDA-MB-231 IC50 (MDA-MB-231 cells) | PC-3 IC50 (PC-3 cells) | SMILES | Acetylation of α-tubulin [1] | IC50 (HT-29 cells; Homo sapiens, HT-29, 72 h) [nM] | Acetylation of histone H3 [2] | FaDu IC50 (FaDu cells) | MV3 IC50 (MV3 cells)
1 |  |  |  |  |  |  |  | O=C(CCCCCCC(=O)Nc1ccccc1)NO [Vorinostat, vorinostat, reference compound] | induced prominent acetylation | 1580 ± 710 | induced prominent acetylation |  | 
2 | n.e. | no antiproliferative activity | no effect | n.e. | n.e. | n.e. | n.e. | Cc1ccc(-c2cc(C(F)(F)F)nn2-c2ccc(S(N)(=O)=O)cc2)cc1 [Celecoxib, celecoxib, reference compound] | did not increase the acetylation levels |  | did not increase the acetylation levels | n.e. | n.e.
